Where “and” joins values, the source holds several entries; their conditions need not be identical. Identical values can stand only once.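 Cells were grown in 96-well plates and exposed to each compound for 48 hours at five concentrations; endpoints were interpolated linearly between bracketing concentrations, or set to the highest concentration if not reached. The concentration for 50% growth inhibition is given as GI50. TGI denotes the concentration required for complete inhibition of growth.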
Legend:
Experiment in all cases: NCI tumour cell line growth inhibition, 48 h
[1] = system: MCF7 breast
[2] = system: MDA-MB-435
[3] = system: MDA-N
[4] = system: NCI/ADR-RES ovarian
[5] = system: OVCAR-4 ovarian
[6] = system: PC-3 prostate
[7] = system: SF-539 CNS
[8] = system: SK-MEL-2 melanoma
[9] = system: SK-OV-3 ovarian
[10] = system: UACC-257 melanoma
[11] = system: UO-31 renal

SMILES | TGI [1] [µM] | TGI [2] [µM] | TGI [3] [µM] | TGI [4] [µM] | TGI [5] [µM] | TGI [6] [µM] | TGI [7] [µM] | TGI [8] [µM] | TGI [9] [µM] | TGI [10] [µM] | TGI [11] [µM] | GI50 [8] | GI50 [1] [µM]
N=C1C(=N)c2ccccc2-c2ccccc21 | 2.27 | 0.4 | 0.325 | 5 | 2.78 | 2.88 | 2.02 | 2.97 | 3.07 | 1.46 | 2.96 |  | 
CCCNC(=S)/N=C\c1c(O)c2ccccc2oc1=O | > 100 | > 100 | > 100 | > 100 | > 100 | > 100 | > 100 | > 100 | > 100 | > 100 | > 100 |  | 
COC(=N)C12C(N)=NC(OC)(OC)C1(C#N)C21C(=O)N(c2ccccc2)N=C1C (stereo not given) | > 100 | > 100 | > 100 | > 100 | > 100 | > 100 | > 100 | > 100 | > 100 | > 100 | > 100 |  | 
CC1[C@@H](OCc2ccccc2)COC(=O)N1Cc1ccccc1 (stereo not given in full) | > 100 | > 100 | > 100 | > 100 | > 100 | > 100 |  | > 100 | > 100 | > 100 | > 100 |  | 
CNC(=O)CCNC(=O)CCC(=O)OC | > 100 | > 100 | > 100 | > 100 | > 100 | > 100 | > 100 | > 100 | > 100 |  | > 100 |  | 
Cc1sc2nc3n(c(=O)c2c1C)N=C(c1ccc(Cl)cc1)CS3 | > 100 | > 100 | > 100 | > 100 | > 100 | > 100 | > 100 |  | > 100 | > 100 | > 100 |  | 
CC(C)/C=N\n1c(N)c(C#N)c(C#N)c1C(C)C | > 100 | 95.1 | 76.6 | 66.3 | 84.9 | 47.2 | 52.5 | 58 | > 100 | 50.3 | 64.2 |  | 
CC1(C)OCC(C2OC(N3O[C@H](CI)C[C@@H]3c3ccccc3)C3OC(C)(C)OC23)O1 (stereo not given in full) | > 100 | > 100 | > 100 | > 100 | > 100 | > 100 | > 100 | > 100 | > 100 | > 100 | > 100 |  | 
Cc1ccc(S(=O)(=O)NNC(=S)Nc2cccc3ccccc23)cc1 | > 100 | > 100 | > 100 | > 100 | 66.8 | > 100 | > 100 | > 100 | > 100 | 52.1 | > 100 |  | 
CC1(O)/C(=N/O)CC2CC1C2(C)C (stereo not given) | > 100 | > 100 | > 100 |  | > 100 |  |  | > 100 |  | > 100 | > 100 |  | 
CN(C)CCO/N=C1/C=C2CC[C@H]3[C@@H]4CC[C@H](O)[C@@]4(C)CC[C@@H]3[C@@]2(C)CC1 | 86 | 12.4 | 11.2 | 17.1 |  | > 100 | 13.2 | 37.4 | 44.4 | 30.2 | 28.2 |  | 
CN(C)CCNc1ccc2c(=O)n(CCN(C)C)c(=O)n3c4ccc(N)cc4c(=O)c1c23 | 0.242 | 0.273 | 0.219 | 2.28 | 0.996 | 0.477 | 0.482 | 0.496 | 2.7 | 2.51 | 0.346 |  | 
COC(=O)C1(O)c2ccccc2N=C2C(=O)c3ccccc3N21 (stereo not given) | > 100 | 26.3 | 41.8 | > 100 | > 100 | > 100 | > 100 | > 100 |  | > 100 | > 100 |  | 
O=c1cc(-c2cccc(OC(F)(F)F)c2)[nH]c2cc3c(cc12)OCO3 | > 100 | 0.0367 |  | 0.236 |  | > 100 | 0.204 | 0.628 |  | > 100 |  |  | 
CCOC(=O)CCC(NC(=O)c1ccc(Nc2nc3cc(C(F)(F)F)ccc3nc2-c2ccccc2)cc1)C(=O)OCC (stereo not given) | > 100 | > 100 |  | > 100 | > 100 | > 100 | > 100 | > 100 | > 100 | > 100 | > 100 |  | 
COC(=O)[C@H](Cc1ccccc1)NC(=O)N1CCN(C(=O)N[C@@H](Cc2ccccc2)C(=O)OC)CCN(C(=O)N[C@@H](Cc2ccccc2)C(=O)OC)CC1 | > 100 | > 100 | > 100 | > 100 | > 100 | > 100 |  | > 100 | > 100 | > 100 | > 100 |  | 
CCOC(=O)c1nc2ccc(C(F)(F)F)cc2nc1Oc1ccc(F)cc1 | > 100 | > 100 |  | > 100 | > 100 | > 100 | > 100 | > 100 | > 100 | > 100 | > 100 |  | 
CC(=O)OC1COC(n2c(N)c(C#N)c(C)c(C#N)c2=S)C(OC(C)=O)C1OC(C)=O (stereo not given) | > 100 | > 100 | > 100 | > 100 |  | > 100 | > 100 | > 100 | > 100 | > 100 | > 100 | > 100 µM and 26 µM | 
C=C[C@H]1CN2CCc3c([nH]c4c([C@H]5CCCN5C)c(O)ccc34)[C@@H]2C[C@@H]1C[C@H]1c2[nH]c3ccccc3c2CCN1C | 2.22 | 2.83 | 2.64 | 3.38 | 3.27 | 3.11 |  | 3.53 | 3.31 | 3.54 | 3.24 |  | 1.05
CCOC(=O)c1c(NC(=O)Nc2ccccc2)c(C(N)=O)c2n1CCCCC2 | > 100 | > 100 |  | > 100 | > 100 | > 100 | > 100 | > 100 | > 100 | > 100 | > 100 |  | 
OC1CC(O)c2c(Cl)sc(Cl)c21 (stereo not given) | > 100 | > 100 | > 100 | > 100 | > 100 |  | > 100 | 49.4 | 82 | 54.9 | 77.5 |  | 
O=C1CCCC2=C1CC1=C(CCCC1=O)N2c1cccc2ccccc12 | > 100 |  |  | > 100 | > 100 | > 100 | > 100 |  | > 100 |  | > 100 |  | 

SMILES | TGI [1] [µM] | TGI [2] [µM] | TGI [3] [µM] | TGI [4] [µM] | TGI [5] [µM] | TGI [6] [µM] | TGI [7] [µM] | TGI [8] [µM] | TGI [9] [µM] | TGI [10] [µM] | TGI [11] [µM] | GI50 [8] | GI50 [1] [µM]
CC(=O)c1ccc2c(c1)oc(=O)n2CCN1CCCCC1 | > 100 | > 100 | > 100 | > 100 |  | > 100 | > 100 | > 100 | > 100 | > 100 |  |  | 
O=C1CCCc2cc3c(cc21)CCC3C(=O)O (stereo not given) | > 100 |  | > 100 | > 100 | > 100 | > 100 | > 100 | > 100 | > 100 | > 100 | > 100 |  | 
CCN(CC)CCS(=O)c1c2cc(OC)ccc2nc2ccc(OC)cc12 (stereo not given) | > 24.9 | 26.6 |  | 52.6 | 29.7 | 26.9 | 6 | 40.3 | 40.9 | 17.6 | 5.43 |  | 
CC1N(C)C(=O)OC12CCN(CCCC(=O)c1ccc(F)cc1)CC2 (stereo not given) | > 100 | > 100 | > 100 | > 100 |  | > 100 | > 100 | > 100 | > 100 | > 100 | > 100 |  | 
C=C1C(=O)C23CC1C[C@H](OC(C)=O)C2C1(C)C(OC(C)=O)C[C@H](O)C(C)(C)[C@H]1C(O)[C@@H]3OC(C)=O (stereo not given in full) | 19.4 | 20.6 |  | > 100 | 25.7 | 26.5 | 7.54 | 29.7 | 56.5 | 24.5 | 31.2 |  | 
COc1ccc(CN(CCc2c[nH]c3ccccc23)Cc2ccc(OC)cc2)cc1 | > 100 | 11.7 |  | 9.79 | 12.7 | 13 | 3.14 | 8.29 | 17.9 | 14.3 | 6.8 |  | 
Cc1cc(Cl)ccc1N=NC(=O)NNc1ccc(Cl)cc1C |  | 39.7 | 30.3 |  | 38.6 | 22.8 |  | 28 |  | 33.1 | 29.6 |  | 
NC1=NC(OCC2(CO)CCC2)C=C(NCC2(CO)CCC2)N1 (stereo not given) | > 100 | > 100 | > 100 | > 100 | > 100 | > 100 |  | > 100 | > 100 | > 100 | > 100 |  | 
CC(C)CC1c2[nH]c3ccccc3c2C[C@H]2C(=O)NC(CCC(=O)OC(C)(C)C)C(=O)N12 (stereo not given in full) | > 100 | 97.4 | > 100 | > 100 | > 100 | 69 |  | 43.8 | > 100 | 66 | > 100 |  | 
CC(=O)Nc1ccc2c(C)c3c4ccccc4n(C)c3nc2n1 | 96.7 | 45.7 | 34.5 | > 100 |  | > 100 | 77.6 | 47.6 |  | 57.5 | 32.3 |  | 
CC(=O)O[C@H]1C(=O)[C@@]2(C)[C@H]([C@H](OC(=O)C3CCCCC3)[C@]3(O)C[C@H](OC(=O)[C@H](O)[C@@H](NC(=O)C4CCCCC4)C4CCCCC4)C(C)=C1C3(C)C)[C@]1(OC(C)=O)CO[C@@H]1C[C@@H]2O | 4.36 | 0.0105 | 0.00852 | 5.68 | 11.8 | 1.96 | 0.766 |  | 19.2 | 4.24 | 6.23 |  | 
O=C1CCC2SC1CCC2=O | > 100 | > 100 |  | > 100 | > 100 | > 100 | > 100 | > 100 | > 100 | > 100 | > 100 |  | 
CC1C[C@]2(C)C(=S)Nc3ccccc3[C@@H]2Nc2ccccc21 (stereo not given in full) | 27.3 | 31.2 | 37.4 | 36.6 | 38.6 | 35.7 | 34.2 | 32 |  | 32.5 | 32.8 |  | 
C=CCOCn1ccc(=O)[nH]c1=O | > 100 | > 100 | > 100 |  |  | > 100 | > 100 |  | > 100 | > 100 | > 100 |  | 
O=c1c2cccnc2nc2ccc3c[nH][nH]c3c12 | > 10 | > 10 | > 10 | > 10 | > 10 | > 10 | > 10 | > 10 | > 10 | > 10 |  |  | 
CSc1cc(Cl)c(C)cc1S(=O)(=O)NC(=O)NNc1ccc(F)c(Cl)c1 | > 100 | > 100 | > 100 | > 100 | > 100 | > 100 | > 100 | > 100 | > 100 |  |  |  | 
COc1ccc(OC)c2nc3c(C(=O)NCCN(C)C)cccc3nc12 | > 29.8 | 17.5 | 16 | > 61.1 | 11.1 | 17.9 | 20 | 25.9 |  | 15.3 | > 84.7 |  | 
S=C(Nc1cccc(Cl)c1)Nc1ccccn1 | > 100 | > 100 |  | > 100 | > 100 | > 100 | > 100 | > 100 | > 100 | > 100 | > 100 |  | 
O=C(Cc1ccccc1)c1ccc2[nH]c(=O)oc2c1 | > 100 | > 100 | > 100 | 79 |  | > 100 | > 100 | > 100 | > 100 | > 100 |  |  | 
NC1CC(=O)c2cc(Br)sc21 (stereo not given) | > 100 | > 100 | > 100 | > 100 |  | > 100 | > 100 | > 100 | > 100 | > 100 | > 100 |  | 
CNC(=O)c1n[nH][nH]c1=O | > 100 | > 100 | > 100 | > 100 |  | > 100 |  | > 100 | > 100 | > 100 | > 100 |  | 
